In US20230365592A1 (Agios Pharmaceuticals, Inc., priority 2022, published 2023):

Target: T1, human PAH with the R408W mutation (Homo sapiens, UniProt P00439, R408W)
T1 construct: expressed in transfected cells
T1 sequence (P00439 1-452 R408W): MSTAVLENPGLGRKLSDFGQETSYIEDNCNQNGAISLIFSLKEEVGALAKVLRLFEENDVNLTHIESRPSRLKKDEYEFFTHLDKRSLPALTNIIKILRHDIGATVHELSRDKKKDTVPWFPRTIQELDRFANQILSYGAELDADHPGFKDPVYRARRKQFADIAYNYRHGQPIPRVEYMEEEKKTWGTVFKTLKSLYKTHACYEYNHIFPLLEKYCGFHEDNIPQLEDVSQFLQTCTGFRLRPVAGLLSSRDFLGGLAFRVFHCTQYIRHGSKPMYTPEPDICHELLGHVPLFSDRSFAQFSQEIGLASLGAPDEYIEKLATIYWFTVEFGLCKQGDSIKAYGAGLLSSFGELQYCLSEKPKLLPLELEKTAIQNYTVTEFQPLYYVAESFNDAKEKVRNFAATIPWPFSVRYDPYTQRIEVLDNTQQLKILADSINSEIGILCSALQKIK
Test: Cell Based Phenylalanine Flux Assay;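 further: after compound treatment, cells received sepiapterin plus isotope-labelled Phenylalanine for 4 hours, then labelled Tyrosine in the medium was quantified, 10-point 2-fold dilution series run in duplicate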
Conditions: A375 cells expressing R408W PAH; 24 hrs with compound, then 20 µM sepiapterin and 800 µM 13C9,15N-Phenylalanine for 4 hours; 13C-Tyrosine by LC-MS; average where tested multiple times; read-out: AC50

| AC50 | SMILES |
| --- | --- |
| 1000 to 5000 nM | Cc1cccn2nc(C3c4nc[nH]c4CCN3C(=O)c3ccn(-c4ccccn4)n3)cc12 (centres unmarked) |
| 1000 to 5000 nM | O=C(c1nnc(N2CCOCC2)o1)N1CCc2[nH]cnc2C1c1cc2c(F)cccn2n1 (centres unmarked) |
| 1000 to 5000 nM | Cn1cncc1-c1nnc(C(=O)N2CCc3[nH]cnc3C2c2cc3cccc(Cl)n3n2)o1 (centres unmarked) |
| 1000 to 5000 nM | Cc1cccc2cc(C3c4nc[nH]c4CCN3C(=O)c3cnco3)nn12 (centres unmarked) |
| > 5000 nM | O=C(c1ccn[nH]1)N1CCc2[nH]cnc2C1c1cc2ccccn2n1 (centres unmarked) |
| 1000 to 5000 nM | CC(C)(O)c1nnc(C(=O)N2CCc3[nH]cnc3C2c2cc3cccc(C(F)(F)F)n3n2)o1 (centres unmarked) |
| 1000 to 5000 nM | Cc1cccn2nc(C3c4nc[nH]c4CCN3C(=O)c3nnc(-c4cn[nH]c4)o3)cc12 (centres unmarked) |
| 1000 to 5000 nM | CC(F)(F)c1nnc(N2CCc3[nH]cnc3C2c2cc3cccc(C(F)(F)F)n3n2)o1 (centres unmarked) |
| > 5000 nM | CN1CCN(c2nnc(C(=O)N3CCc4[nH]cnc4C3c3cc4ccccn4n3)o2)CC1 (centres unmarked) |
| 1000 to 5000 nM | Cc1ccn2nc(C3c4nc[nH]c4CCN3C(=O)c3nnc(C4CC4)o3)cc2c1 (centres unmarked) |
| 1000 to 5000 nM | Fc1cccn2nc(C3c4nc[nH]c4CCN3c3nnc(C4CC(F)(F)C4)o3)cc12 (centres unmarked) |
| 1000 to 5000 nM | Fc1cccn2nc(C3c4nc[nH]c4CCN3c3nc4ccccc4o3)cc12 (centres unmarked) |

| SMILES | AC50 |
| --- | --- |
| COC(=O)N1CC(C(=O)N2CCc3[nH]cnc3[C@H]2c2cc3ccccn3n2)C1 (single isomer, unassigned) | > 5000 nM |
| Cn1ccc(-c2ncc(C(=O)N3CCc4[nH]cnc4[C@H]3c3cc4ccccn4n3)o2)n1 (single isomer, unassigned) | 1000 to 5000 nM |

Same assay, conditions: A375 cells expressing human PAH R408W; 24 hrs compound incubation; 13C-Tyrosine by LC-MS; average where tested multiple times; read-out: AC50

| AC50 | SMILES |
| --- | --- |
| 1000 to 5000 nM | O=C(c1nnc(-c2ccccn2)o1)N1CCc2[nH]cnc2[C@@H]1c1cc2ccc(C(F)(F)F)cn2n1 [Example 2415, (R)-(5-(pyridin-2-yl)-1,3,4-oxadiazol-2-yl)(4-(6-(trifluoromethyl)pyrazolo[1,5-a]pyridin-2-yl)-6,7-dihydro-1H-imidazo[4,5-c]pyridin-5(4H)-yl)methanone] |
| < 500 nM | FC(F)Oc1cccn2nc([C@@H]3c4nc[nH]c4CCN3c3ncccn3)cc12 [Example 2254, (S)-4-(4-(difluoromethoxy)pyrazolo[1,5-a]pyridin-2-yl)-5-(pyrimidin-2-yl)-4,5,6,7-tetrahydro-1H-imidazo[4,5-c]pyridine] |
| < 500 nM | COc1cccn2nc([C@@H]3c4nc[nH]c4CCN3c3ncccn3)cc12 [Example 2299, (S)-4-(4-methoxypyrazolo[1,5-a]pyridin-2-yl)-5-(pyrimidin-2-yl)-4,5,6,7-tetrahydro-1H-imidazo[4,5-c]pyridine] |
| > 5000 nM | FC(F)Oc1cccn2nc([C@H]3c4nc[nH]c4CCN3c3cnccn3)cc12 [Example 2318, (R)-4-(4-(difluoromethoxy)pyrazolo[1,5-a]pyridin-2-yl)-5-(pyrazin-2-yl)-4,5,6,7-tetrahydro-1H-imidazo[4,5-c]pyridine] |
| 500 to 1000 nM | Cc1cccn2nc([C@@H]3c4nc[nH]c4CCN3C(=O)c3cnc(-c4ccccn4)o3)cc12 [Example 1964, (S)-(4-(4-methylpyrazolo[1,5-a]pyridin-2-yl)-1,4,6,7-tetrahydro-5H-imidazo[4,5-c]pyridin-5-yl)(2-(pyridin-2-yl)oxazol-5-yl)methanone] |
| 1000 to 5000 nM | O=C(c1ccnn1-c1ccccn1)N1CCc2[nH]cnc2[C@H]1c1cc2c(F)cccn2n1 [Example 2388, (S)-(4-(4-fluoropyrazolo[1,5-a]pyridin-2-yl)-6,7-dihydro-1H-imidazo[4,5-c]pyridin-5(4H)-yl)(1-(pyridin-2-yl)-1H-pyrazol-5-yl)methanone] |
| > 5000 nM | CCc1cccn2nc([C@H]3c4nc[nH]c4CCN3C(=O)c3nnc(C4CC4)o3)cc12 [Example 1874, (R)-(5-cyclopropyl-1,3,4-oxadiazol-2-yl)(4-(4-ethylpyrazolo[1,5-a]pyridin-2-yl)-1,4,6,7-tetrahydro-5H-imidazo[4,5-c]pyridin-5-yl)methanone] |

Same assay, conditions: A375 cells expressing human R408W PAH; 24 hrs compound incubation; 13C-Tyrosine by LC-MS; average where tested multiple times; read-out: AC50

| AC50 | SMILES |
| --- | --- |
| < 500 nM | CC(C)(O)c1nc(Br)c(C(=O)N2CCc3[nH]cnc3[C@H]2c2cc3c(F)cccn3n2)o1 [Example 746, (S)-(4-bromo-2-(2-hydroxypropan-2-yl)oxazol-5-yl)(4-(4-fluoropyrazolo[1,5-a]pyridin-2-yl)-6,7-dihydro-1H-imidazo[4,5-c]pyridin-5(4H)-yl)methanone] |
| < 500 nM | CC1(c2nnc(C(=O)N3CCc4[nH]cnc4[C@H]3c3cc4ccccn4n3)o2)CC1 [Example 1284, (S)-(5-(1-methylcyclopropyl)-1,3,4-oxadiazol-2-yl)(4-(pyrazolo[1,5-a]pyridin-2-yl)-6,7-dihydro-1H-imidazo[4,5-c]pyridin-5(4H)-yl)methanone] |
| 500 to 1000 nM | O=C(c1nnc(C2CC2)o1)N1CCc2[nH]cnc2[C@H]1c1cc2cc(F)ccn2n1 [Example 1130, (S)-(5-cyclopropyl-1,3,4-oxadiazol-2-yl)(4-(5-fluoropyrazolo[1,5-a]pyridin-2-yl)-6,7-dihydro-1H-imidazo[4,5-c]pyridin-5(4H)-yl)methanone] |
| 1000 to 5000 nM | O=C(c1nnc(-c2ccccn2)o1)N1CCc2[nH]cnc2[C@@H]1c1cc2cccc(C(F)(F)F)n2n1 [Example 1029, (R)-(5-(pyridin-2-yl)-1,3,4-oxadiazol-2-yl)(4-(7-(trifluoromethyl)pyrazolo[1,5-a]pyridin-2-yl)-6,7-dihydro-1H-imidazo[4,5-c]pyridin-5(4H)-yl)methanone] |
| 1000 to 5000 nM | Cc1cccc(-c2nnc(C(=O)N3CCc4[nH]cnc4[C@@H]3c3cc4cccc(Cl)n4n3)o2)n1 [Example 1397, (R)-(4-(7-chloropyrazolo[1,5-a]pyridin-2-yl)-6,7-dihydro-1H-imidazo[4,5-c]pyridin-5(4H)-yl)(5-(6-methylpyridin-2-yl)-1,3,4-oxadiazol-2-yl)methanone] |
| 500 to 1000 nM | Cn1nc(C(F)F)nc1C(=O)N1CCc2[nH]cnc2[C@H]1c1cc2c(F)cccn2n1 [Example 764, (S)-(3-(difluoromethyl)-1-methyl-1H-1,2,4-triazol-5-yl)(4-(4-fluoropyrazolo[1,5-a]pyridin-2-yl)-6,7-dihydro-1H-imidazo[4,5-c]pyridin-5(4H)-yl)methanone] |
| > 5000 nM | O=C(c1nnc(-c2ncccc2F)o1)N1CCc2[nH]cnc2[C@@H]1c1cc2cccc(C(F)F)n2n1 [Example 1581, (R)-(4-(7-(difluoromethyl)pyrazolo[1,5-a]pyridin-2-yl)-6,7-dihydro-1H-imidazo[4,5-c]pyridin-5(4H)-yl)(5-(3-fluoropyridin-2-yl)-1,3,4-oxadiazol-2-yl)methanone] |
| 1000 to 5000 nM | O=C(c1nnc(-c2ccn(C(F)(F)F)n2)o1)N1CCc2[nH]cnc2[C@@H]1c1cc2c(C(F)(F)F)cccn2n1 [Example 1513, (R)-(5-(1-(trifluoromethyl)-1H-pyrazol-3-yl)-1,3,4-oxadiazol-2-yl)(4-(4-(trifluoromethyl)pyrazolo[1,5-a]pyridin-2-yl)-6,7-dihydro-1H-imidazo[4,5-c]pyridin-5(4H)-yl)methanone] |
| < 500 nM | CC(C)(O)c1nc(C(F)F)c(C(=O)N2CCc3[nH]cnc3[C@H]2c2cc3c(F)cccn3n2)o1 [Example 714, (S)-(4-(difluoromethyl)-2-(2-hydroxypropan-2-yl)oxazol-5-yl)(4-(4-fluoropyrazolo[1,5-a]pyridin-2-yl)-6,7-dihydro-1H-imidazo[4,5-c]pyridin-5(4H)-yl)methanone] |
| < 500 nM | O=C(c1cnn2ccccc12)N1CCc2[nH]cnc2[C@H]1c1cc2c(C(F)F)cccn2n1 [Example 1730, (S)-(4-(4-(difluoromethyl)pyrazolo[1,5-a]pyridin-2-yl)-6,7-dihydro-1H-imidazo[4,5-c]pyridin-5(4H)-yl)(pyrazolo[1,5-a]pyridin-3-yl)methanone] |
| < 500 nM | O=C(c1nnc(-c2ncccn2)o1)N1CCc2[nH]cnc2[C@H]1c1cc2cccc(Cl)n2n1 [Example 1393, (S)-(4-(7-chloropyrazolo[1,5-a]pyridin-2-yl)-6,7-dihydro-1H-imidazo[4,5-c]pyridin-5(4H)-yl)(5-(pyrimidin-2-yl)-1,3,4-oxadiazol-2-yl)methanone] |
| < 500 nM | Cc1c(-c2nnc(C(=O)N3CCc4[nH]cnc4[C@H]3c3cc4cccc(C(F)F)n4n3)o2)cnn1C [Example 1366, (S)-(4-(7-(difluoromethyl)pyrazolo[1,5-a]pyridin-2-yl)-6,7-dihydro-1H-imidazo[4,5-c]pyridin-5(4H)-yl)(5-(1,5-dimethyl-1H-pyrazol-4-yl)-1,3,4-oxadiazol-2-yl)methanone] |
| < 500 nM | Clc1cccn2nc([C@@H]3c4nc[nH]c4CCN3c3ncccn3)cc12 [Example 1664, (S)4-(4-chloropyrazolo[1,5-a]pyridin-2-yl)-5-(pyrimidin-2-yl)-4,5,6,7-tetrahydro-1H-imidazo[4,5-c]pyridine] |
| > 5000 nM | Cc1cnn(C)c1-c1nnc(C(=O)N2CCc3[nH]cnc3[C@@H]2c2cc3c(F)cccn3n2)o1 [Example 929, (R)-(5-(1,4-dimethyl-1H-pyrazol-5-yl)-1,3,4-oxadiazol-2-yl)(4-(4-fluoropyrazolo[1,5-a]pyridin-2-yl)-6,7-dihydro-1H-imidazo[4,5-c]pyridin-5(4H)-yl)methanone] |
